Measurements taken from US11834698B2, “Process for determining enzyme activity in a cell by activity-based reporter gene technology (ABRGT)” (INDIAN INSTITUTE OF SCIENCE EDUCATION AND RESEARCH, priority 2018, dated 2023).
Peptide text beside a SMILES is read from it. * marks the point of attachment. Cbz = O=C(OCc1ccccc1)*; CH2F = FC*

Target: T1, caspase-3 GFPspark (Homo sapiens, UniProt P42574)
T1 sequence (P42574 29-175 limits assumed): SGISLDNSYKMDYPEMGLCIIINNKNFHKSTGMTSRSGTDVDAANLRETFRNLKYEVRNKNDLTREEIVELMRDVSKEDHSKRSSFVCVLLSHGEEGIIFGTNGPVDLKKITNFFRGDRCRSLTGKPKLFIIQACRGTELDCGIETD
T1 sequence (P42574 176-277 limits assumed): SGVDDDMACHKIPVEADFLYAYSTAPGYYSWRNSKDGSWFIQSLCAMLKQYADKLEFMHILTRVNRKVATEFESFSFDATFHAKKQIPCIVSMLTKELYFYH
Test: AbRGT FRET imaging / acceptor photobleaching, caspase-3 GFPspark in MCF-7 cells
Format: cell-based
Parameters: host or cells: MCF-7, HeLa, HEK-293
Conditions: for effect of inhibitor on FRET signal: STS 4 h
Procedure: FIG. 2 depicts (a) a schematic representation of AbRGT in determining the specific activation of caspase-3 GFPspark tagged enzyme by FRET effect utilizing Rh-VAD-FMK (probe 1). (b) The fluorescence signal was collected in GFP, FRET and Rhodamine (Rh) channels. MCF-7 cells transfected with caspase-3 GFPspark treated with (i) 1 μM STS for 4 h or (ii) 1 μg/ml TRAIL for 5 h and then labelled with probe 1. (iii) Un-transfected MCF-7 cells were treated with 1 μM STS for 4 h and then labelled with the probe 1. MCF-7 cells transfected with enhanced green fluorescent protein (EGFP) plasmid treated (iv) with 1 μM STS or (v) without STS for 4 h and then labelled with probe 1, scale bar, […]. (c) FRET validation between GFPspark and rhodamine fluorophore using the acceptor photobleaching method. Images for GFP and rhodamine fluorescence signals were collected in GFP and FRET channels pre- and post-bleaching of rhodamine signals. (d) Quantification of change in GFP fluorescence intensity after rhodamine photo-bleaching in both unbleached control region and rhodamine bleached region, region of interest (ROI), area under the white square. Error bar represents the s.e.m for n=15 cells (*P<0.00001). Scale bar, 10 μm. a.u., arbitrary units.
FIGS. 6A and 6B depict time dependent activation of caspase-3 GFPspark in MCF-7 cells upon STS (1 μM) induction. MCF-7 cells transfected with 2 μg of caspase-3 GFPspark plasmid and treated with 1 μM of STS for 2, 6, and 8 h. Cells were then labelled with the probe 1 for an additional 2 h. […] FRET validation between GFPspark and rhodamine fluorophore using the acceptor photobleaching method for the MCF-7 cells with STS induction for 2, 6 and 8 h. I=intensity (a.u.), arbitrary units. The calculated FRET efficiency for 2, 6 and 8 h are 38, 43, and 36% respectively.
FIGS. 7A and 7B depict applying AbRGT for specific detection of active caspase-3 GFPspark using the Rh-DEVD-FMK (probe 2). Caspase-3 GFPspark (2 μg) overexpressing MCF-7 cells were treated with 1 μM of STS for 4 h and labelled with the probe 2 (1 μM). […] The rise in GFPspark intensity after rhodamine photobleaching in the background is insignificant as compared to the ROI, i.e., 68 a.u., with a calculated FRET efficiency of 35%.
FIG. 12 depicts confocal images of MCF-7 cells in GFP, FRET and Rh channel. Caspase-3 GFPspark transfected MCF-7 cells were treated with STS for 4 h and labelled (a) with or (b) without probe 1. Cells were pre-treated with (c) Z-VAD-FMK (50 μM) and (d) Q-VD-OPh (50 μM) pan-caspase inhibitors 3 h before the probe labelling.
Plasmids and transient transfection: GFPspark tagged plasmids; caspase-3 GFPspark tag (Cat: HG10050-ACG), caspase-7 GFPspark tag (HG10049-ACG), caspase-8 GFPspark (HG10078-ACG), caspase-9 GFPspark (HG11151-ACG) and cathepsin B GFPspark (HG10483-ACG) were procured from Sino Biological. For transfection, cells were seeded in a 6-well plate at a density of 0.4 million cells/well. At 60-70% confluency, cells were transiently transfected for 24 h at 37° C. with 1 μg of the GFPspark tagged plasmid DNA construct mixed with 5 μL of Lipofectamine 2000 (Invitrogen) according to the manufacturer's instructions. 24 h post-transfection, cells were visualized under the GFP filter for GFPspark expression under fluorescence microscope at 10× magnification.
Labelling of active caspases in apoptotic cells with FABP: After 24 h of transfection, cells were treated with STS (1 μM) drug or TRAIL (1 μg/ml) for apoptotic induction and incubated for 2, 4, 6 and 8 h at 37° C. in a humidified atmosphere of 5% CO2/95% air. Cells were gently scraped off from the surface at the end of apoptotic induction and centrifuged at 3000 rpm for 5 min. The cell pellet was resuspended in 300 μL of fresh DMEM containing 1 μM of probe for probe 2 and incubated for additional 2 h at 37° C. in a humidified atmosphere of 5% CO2. Cells were again centrifuged at 3000 rpm for 5 mins, and the supernatant was decanted. […]

[1] = MCF-7, inhibitor 50 μM pre-treatment before probe 1 labelling

Molecule | signal in Rh channel in presence of inhibitor [1] | effect of inhibitor on FRET signal [1] | calculated FRET efficiency (MCF-7, STS 1 μM 2 h) | rise in GFP intensity after rhodamine photobleaching in ROI (MCF-7, STS 1 μM 4 h, probe 1 μM) | calculated FRET efficiency (MCF-7, STS 1 μM 4 h, probe 1 μM 2 h, acceptor photobleaching) | calculated FRET efficiency (MCF-7, STS 1 μM 6 h) | calculated FRET efficiency (MCF-7, STS 1 μM 8 h)
CC(C)[C@H](NC(=O)c1ccc2ccccc2n1)C(=O)N[C@@H](CC(=O)O)C(=O)COc1c(F)cccc1F [Q-VD-OPh] | distinct punctate labelling was detected | abolished |  |  |  |  | 
COC(=O)C[C@H](NC(=O)[C@H](C)NC(=O)[C@@H](NC(=O)OCc1ccccc1)C(C)C)C(=O)CF [Z-VAD-FMK] (Cbz-Val-Ala-Asp(OMe)-CH2F) |  | completely abolished |  |  |  |  | 
Rhodamine-VAD-fluoromethyl ketone [probe 1] |  |  | 38% | 58±3 a.u. | 35±1% | 43% | 36%
